# Patent US11053241B2, “TYK2 inhibitors and uses thereof” (Nimbus Lakshmi, Inc., priority 2018, dated 2021)
# Target: human TYK2 (JH2domain-pseudokinase) (Homo sapiens (Human), UniProt P29597)
# Experiment: TYK2 JH2 Domain Binding Assay (KINOMEscan)
# Conditions: 11-point 3-fold dilution, top concentration 30,000 nM, duplicate
# Description: Binding constants for compounds of the present invention against the JH2 domain were determined by the following protocol for a KINOMEscan® assay (DiscoveRx). A fusion protein of a partial length construct of human TYK2 (JH2domain-pseudokinase) (amino acids G556 to D888 based on reference sequence NP_003322.3) and the DNA binding domain of NFkB was expressed in transiently transfected HEK293 cells. From these HEK 293 cells, extracts were prepared in M-PER extraction buffer (Pierce) in the presence of Protease Inhibitor Cocktail Complete (Roche) and Phosphatase Inhibitor Cocktail Set II (Merck) per manufacturers' instructions. The TYK2(JH2domain-pseudokinase) fusion protein was labeled with a chimeric double-stranded DNA tag containing the NFkB binding site (5′-GGGAATTCCC-3′) fused to an amplicon for qPCR readout, which was added directly to the expression extract (the final concentration of DNA-tag in the binding reaction is 0.1 nM).
# Streptavidin-coated magnetic beads (Dynal M280) were treated with a biotinylated small molecule ligand for 30 minutes at room temperature to generate affinity resins for the binding assays. The liganded beads were blocked with excess biotin and washed with blocking buffer (SeaBlock (Pierce), 1% BSA, 0.05% Tween 20, 1 mM DTT) to remove unbound ligand and to reduce nonspecific binding.
# The binding reaction was assembled by combining 16 μl of DNA-tagged kinase extract, 3.8 μl liganded affinity beads, and 0.18 μl test compound (PBS/0.05% Tween 20/10 mM DTT/0.1% BSA/2 μg/ml sonicated salmon sperm DNA). Extracts were used directly in binding assays without any enzyme purification steps at a ≥10,000-fold overall stock dilution (final DNA-tagged enzyme concentration <0.1 nM). Extracts were loaded with DNA-tag and diluted into the binding reaction in a two step process. First extracts were diluted 1:100 in 1× binding buffer (PBS/0.05% Tween 20/10 mM DTT/0.1% BSA/2 μg/ml sonicated salmon sperm DNA) containing 10 nM DNA-tag. This dilution was allowed to equilibrate at room temperature for 15 minutes and then subsequently diluted 1:100 in 1× binding buffer. All reactions were performed in polypropylene 384-well plates. Each was a final volume of 0.02 mL. Assays were incubated with shaking for 1 hour at room temperature. Then the beads were pelleted and washed with wash buffer (1×PBS, 0.05% Tween 20) to remove displaced kinase and test compound. The washed based were re-suspended in elution buffer (1×PBS, 0.05% Tween 20, 0.5 μM non-biotinylated affinity ligand) and incubated at room temperature with shaking for 30 minutes. The kinase concentration in the eluates was measured by qPCR. qPCR reactions were assembled by adding 2.5 μL of kinase eluate to 7.5 μL of qPCR master mix containing 0.15 μM amplicon primers and 0.15 μM amplicon probe. The qPCR protocol consisted of a 10 minute hot start at 95° C., followed by 35 cycles of 95° C. for 15 seconds, 60° C. for 1 minute.
# Test compounds were prepared as 111× stocks in 100% DMSO. Kd values were determined using an 11-point 3-fold compound dilution series with three DMSO control points. All compounds for Kd measurements are distributed by acoustic transfer (non-contact dispensing) in 100% DMSO. The compounds were then diluted directly into the assays such that the final concentration of DMSO was 0.9%. The Kd values were determined using a compound top concentration of 30,000 nM. Kd measurements were performed in duplicate.
# Binding constants (Kds) were calculated with a standard dose-response curve using the Hill equation: […]
# The Hill Slope was set to −1. Curves were fitted using a non-linear least square fit with the Levenberg-Marquardt algorithm (Levenberg, K., A method for the solution of certain non-linear problems in least squares, Q. Appl. Math. 2, 164-168 (1944)).
# Sequence of human TYK2 (JH2domain-pseudokinase) (P29597 556-888): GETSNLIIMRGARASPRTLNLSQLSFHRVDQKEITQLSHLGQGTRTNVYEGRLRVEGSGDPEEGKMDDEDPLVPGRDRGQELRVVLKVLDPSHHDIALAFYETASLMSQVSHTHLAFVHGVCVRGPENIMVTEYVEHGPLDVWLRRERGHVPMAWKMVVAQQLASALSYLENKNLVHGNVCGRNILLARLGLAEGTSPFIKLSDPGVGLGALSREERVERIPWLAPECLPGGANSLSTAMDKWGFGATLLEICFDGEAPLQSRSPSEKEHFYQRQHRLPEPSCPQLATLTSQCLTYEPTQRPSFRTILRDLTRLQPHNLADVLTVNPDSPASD
row,Kd,Compound
1,< 0.2 nM,"CNC(=O)c1cnc(NC(=O)C2CC2)c2[nH]c(-c3cccc(-c4cn5c(n4)CCC5)c3F)cc12 [Compound I-69, 7-(cyclopropanecarboxamido)-2-(3-(6,7-dihydro-5H-pyrrolo[1,2-a]imidazol-2-yl)-2-fluorophenyl)-N-methyl-1H-pyrrolo[2,3-c]pyridine-4-carboxamide]"
2,0.2 to 1 nM,"CCc1csc(-c2cc3c(C(=O)NC)cnc(NC(=O)C4CC4)c3[nH]2)n1 [Compound I-70, 7-(cyclopropanecarboxamido)-2-(4-ethylthiazol-2-yl)-N-methyl-1H-pyrrolo[2,3-c]pyridine-4-carboxamide]"
3,> 10 nM,CNC(=O)c1cnc(NC(=O)C2CC2)c2[nH]c(-c3ccc(OC)cc3[C@H]3COCCO3)cc12 [Compound I-71]
4,> 10 nM,CNC(=O)c1cnc(NC(=O)C2CC2)c2[nH]c(-c3ccc(OC)cc3[C@@H]3COCCO3)cc12 [Compound I-72]
5,< 0.2 nM,"CNC(=O)c1cnc(NC(=O)C2CC2)c2[nH]c(-c3cccc(-c4nc(C)n(C)n4)c3F)cc12 [Compound I-73, 7-(cyclopropanecarboxamido)-2-(3-(1,5-dimethyl-1H-1,2,4-triazol-3-yl)-2-fluorophenyl)-N-methyl-1H-pyrrolo[2,3-c]pyridine-4-carboxamide]"
6,< 0.2 nM,"CNC(=O)c1cnc(NC(=O)C2CC2)c2[nH]c(-c3ccc(-c4nc(C)c(C)n4C)cc3F)cc12 [Compound I-74, 7-(cyclopropanecarboxamido)-2-(2-fluoro-4-(1,4,5-trimethyl-1H-imidazol-2-yl)phenyl)-N-methyl-1H-pyrrolo[2,3-c]pyridine-4-carboxamide]"
7,< 0.2 nM,"CNC(=O)c1cnc(NC(=O)C2CC2)c2[nH]c(-c3ccc(-c4ncc5n4CCCC5)cc3F)cc12 [Compound I-75, 7-(cyclopropanecarboxamido)-2-(2-fluoro-4-(5,6,7,8-tetrahydroimidazo[1,5-a]pyridin-3-yl)phenyl)-N-methyl-1H-pyrrolo[2,3-c]pyridine-4-carboxamide]"
8,< 0.2 nM,"CNC(=O)c1cnc(NC(=O)C2CC2)c2[nH]c(-c3cccc(-c4cn5c(n4)OCCC5)c3F)cc12 [Compound I-76, 7-(cyclopropanecarboxamido)-2-(3-(6,7-dihydro-5H-imidazo[2,1-b][1,3]oxazin-2-yl)-2-fluorophenyl)-N-methyl-1H-pyrrolo[2,3-c]pyridine-4-carboxamide]"
9,< 0.2 nM,"CNC(=O)c1cnc(NC(=O)C2CC2)c2[nH]c(-c3c(F)cc(-c4nccn4C)cc3F)cc12 [Compound I-77, 7-(cyclopropanecarboxamido)-2-(2,6-difluoro-4-(1-methyl-1H-imidazol-2-yl)phenyl)-N-methyl-1H-pyrrolo[2,3-c]pyridine-4-carboxamide]"
10,< 0.2 nM,"CCOc1cc(-c2nccn2C)cc(F)c1-c1cc2c(C(=O)NC)cnc(NC(=O)C3CC3)c2[nH]1 [Compound I-78, 7-(cyclopropanecarboxamido)-2-(2-ethoxy-6-fluoro-4-(1-methyl-1H-imidazol-2-yl)phenyl)-N-methyl-1H-pyrrolo[2,3-c]pyridine-4-carboxamide]"
11,< 0.2 nM,"CNC(=O)c1cnc(NC(=O)C2CC2)c2[nH]c(-c3cccc(-c4cn5c(n4)COCC5)c3F)cc12 [Compound I-79, 7-(cyclopropanecarboxamido)-2-(3-(5,6-dihydro-8H-imidazo[2,1-c][1,4]oxazin-2-yl)-2-fluorophenyl)-N-methyl-1H-pyrrolo[2,3-c]pyridine-4-carboxamide]"
12,< 0.2 nM,"CNC(=O)c1cnc(NC(=O)C2CC2)c2[nH]c(-c3ccn(-c4cnn(C)c4)n3)cc12 [Compound I-80, 7-(cyclopropanecarboxamido)-N-methyl-2-(1′-methyl-1′H-[1,4′-bipyrazol]-3-yl)-1H-pyrrolo[2,3-c]pyridine-4-carboxamide]"
13,< 0.2 nM,"CNC(=O)c1cnc(NC(=O)C2CC2)c2[nH]c(-c3cccc(-c4cnc(C)o4)c3F)cc12 [Compound I-81, 7-(cyclopropanecarboxamido)-2-(2-fluoro-3-(2-methyloxazol-5-yl)phenyl)-N-methyl-1H-pyrrolo[2,3-c]pyridine-4-carboxamide]"
14,> 10 nM,"CNC(=O)c1cnc(NC(=O)C2CC2)c2[nH]c(-c3c(F)cc(-n4nccn4)cc3OC3CC3)cc12 [Compound I-82, 7-(cyclopropanecarboxamido)-2-(2-cyclopropoxy-6-fluoro-4-(2H-1,2,3-triazol-2-yl)phenyl)-N-methyl-1H-pyrrolo[2,3-c]pyridine-4-carboxamide]"
15,< 0.2 nM,"CNC(=O)c1cnc(NC(=O)C2CC2)c2[nH]c(-c3c(F)cc(-c4nccn4C)cc3N3CCC(F)(F)C3)cc12 [Compound I-83, 7-(cyclopropanecarboxamido)-2-(2-(3,3-difluoropyrrolidin-1-yl)-6-fluoro-4-(1-methyl-1H-imidazol-2-yl)phenyl)-N-methyl-1H-pyrrolo[2,3-c]pyridine-4-carboxamide]"
16,< 0.2 nM,"CNC(=O)c1cnc(NC(=O)C2CC2)c2[nH]c(-c3cccc(-c4cn5c(n4)C(C)(C)OCC5)c3F)cc12 [Compound I-84, 7-(cyclopropanecarboxamido)-2-(3-(8,8-dimethyl-5,6-dihydro-8H-imidazo[2,1-c][1,4]oxazin-2-yl)-2-fluorophenyl)-N-methyl-1H-pyrrolo[2,3-c]pyridine-4-carboxamide]"
17,0.2 to 1 nM,"CNC(=O)c1cnc(NC(=O)C2CC2)c2[nH]c(-c3cccc(OC4CCOCC4)c3F)cc12 [Compound I-85, 7-(cyclopropanecarboxamido)-2-(2-fluoro-3-((tetrahydro-2H-pyran-4-yl)oxy)phenyl)-N-methyl-1H-pyrrolo[2,3-c]pyridine-4-carboxamide]"
18,< 0.2 nM,"CNC(=O)c1cnc(NC(=O)C2CC2)c2[nH]c(-c3c(F)cc(-c4nccn4C)cc3N3CCOCC3)cc12 [Compound I-86, 7-(cyclopropanecarboxamido)-2-(2-fluoro-4-(1-methyl-1H-imidazol-2-yl)-6-morpholinophenyl)-N-methyl-1H-pyrrolo[2,3-c]pyridine-4-carboxamide]"
19,< 0.2 nM,"CNC(=O)c1cnc(NC(=O)C2CC2)c2[nH]c(-c3cccc(C4=NC(C)(C)CO4)c3F)cc12 [Compound I-87, 7-(cyclopropanecarboxamido)-2-(3-(4,4-dimethyl-4,5-dihydrooxazol-2-yl)-2-fluorophenyl)-N-methyl-1H-pyrrolo[2,3-c]pyridine-4-carboxamide]"
20,< 0.2 nM,"CNC(=O)c1cnc(NC(=O)C2CC2)c2[nH]c(-c3ccc(OC[C@@H]4CCCO4)cc3F)cc12 [Compound I-88, (S)-7-(cyclopropanecarboxamido)-2-(2-fluoro-4-((tetrahydrofuran-2-yl)methoxy)phenyl)-N-methyl-1H-pyrrolo[2,3-c]pyridine-4-carboxamide]"
21,0.2 to 1 nM,"CNC(=O)c1cnc(NC(=O)C2CC2)c2[nH]c(-c3ccc(C4COCCO4)cc3OC)cc12 (centres unmarked) [Compound I-89, 2-(4-(1,4-dioxan-2-yl)-2-methoxyphenyl)-7-(cyclopropanecarboxamido)-N-methyl-1H-pyrrolo[2,3-c]pyridine-4-carboxamide]"
22,< 0.2 nM,"CNC(=O)c1cnc(NC(=O)C2CC2)c2[nH]c(-c3c(F)cc(-c4nccn4C)cc3N3CC[C@@H](OC)C3)cc12 [Compound I-90, (R)-7-(cyclopropanecarboxamido)-2-(2-fluoro-6-(3-methoxypyrrolidin-1-yl)-4-(1-methyl-1H-imidazol-2-yl)phenyl)-N-methyl-1H-pyrrolo[2,3-c]pyridine-4-carboxamide]"
23,< 0.2 nM,"CNC(=O)c1cnc(NC(=O)C2CC2)c2[nH]c(-c3cccc([C@H]4C[C@@H](OC)C4)c3F)cc12 [Compound I-91, 7-(cyclopropanecarboxamido)-2-(2-fluoro-3-((1s,3s)-3-methoxycyclobutyl)phenyl)-N-methyl-1H-pyrrolo[2,3-c]pyridine-4-carboxamide]"
